From US6511959B1, “Use of calcium-activated neutral protease (CANP) inhibitors in pharmaceutical preparations” (Norsk Hydro AS, priority 1991, dated 2003) come the findings set out here.

Square brackets hold non-standard residues; d marks the D form. Peptide text beside a SMILES is read from it. Nle = CCCC[C@H](N)C(=O)O

The test system of one data set is Walker rat tumors. Nature of the data set: Calpain inhibitor I and II on growth of Walker rat tumors in vivo. The note with it: liposomal, 27 mg/100 g rat daily i.p. More on the design: species or system Wistar rats. Here is the method: Male Wistar rats were injected with 10×10^6 Walker tumor cells per rat at the inguinal region. Treatment was started when measurable tumors appeared. Each treatment group consisted of 5 rats. […] Rats were treated with 2 ml liposomal solution of inhibitors at a concentration of 13.5 mg/ml, equivalent to 27 mg/100 g rat, daily by intraperitoneal injection. Rats in the control group received daily injections of saline-filled liposomes. Tumor volume was determined by measuring two diameters with calipers. The data is presented in FIG. 3 in which each data point represents the mean±S.E. tumor volume measurements for 5 rats.

For data set [1], the system named is human NHIK 3025 cervix carcinoma cells. Nature of the data set: Cell survival (colony formation) of cervix carcinoma cells. The format is cell-based. The note with it: 24 hours treatment, colonies scored after 12 to 14 days. From the text:
Human cells of the established line […], originating from a cervical carcinoma in situ (Nordbye, K. and Oftebro, R., 1969, Exp. Cell Res., 58:458 and Oftebro, R. and Nordbye, K., 1969, Exp. Cell Res., 58:459) were cultivated in medium Eagles minimum essential medium (MEM) supplemented with 10% fetal bovine serum and antibiotics. Cells were routinely grown as monolayers in tissue culture flasks. The cells were kept in continuous exponential growth by frequent reculturing every second or third day. During reculturing, as well as during experiments, the cells were kept in humidified CO2 incubators at 37° C.
In the experiments represented in this example, the proteinaceous CANP inhibitor was additionally purified by gel filtration chromatography.
Cell survival studies were performed by adding inhibitors to exponentially growing, asynchronous cells 2 hours after seeding the cells into plastic Petri dishes at known cell densities. The inhibitor treatment period was 24 hours after which the dishes were rinsed with warm (37° C.) Hanks' balanced salt solution and fresh medium without inhibitor, was added. After 12 to 14 days of incubation (with a medium shift on day 7) colonies of cells were fixed in ethanol and stained with methylene blue. Only colonies containing more than 40 cells were scored as survivors. The percent cell survival is calculated relative to untreated, control dishes.

The next data set relates to M-cells. Nature of the data set: Cytological changes of cell cultures in continuous presence of the inhibitors. The note with it: continuous presence 72 and 120 h, 2 mg/ml trypsin-chymotrypsin inhibitor, 1 mg/ml aprotinin, leupeptin or E64. The format is cell-based, human. Here is the method: (§1) a) Cytological Changes of Cell Cultures in Continuous Presence of the Inhibitors
(§2) The following samples were made up in RPMI-1640 complete medium:
(§3) 2. 2 mg/ml trypsin-chymotrypsin inhibitor
(§4) 6. all five inhibitors at the above mentioned concentrations
(§5) 7. RPMI-1640 medium with no inhibitor addition to serve as a control medium.
(§6) Ten glass Petri dishes (5 cm diameter) were seeded each with 1×10^6 M-cells and another ten dishes were seeded each with 1×10^6 P-cells. Duplicate cell cultures received each type of complete medium containing the inhibitors and control cultures received only complete medium. The cell cultures were incubated at 37° C. in a humidified CO2-incubator for 120 hours. The culture medium was changed with fresh medium containing the same inhibitors at 24 and 72 hours after start of the experiment. Half of the cell cultures were fixed in 50% ethanol 72 hours and the other half 120 hours after initiation of the experiment. All cell cultures were stained according to the Papanicolaou method.

Another data set relates to P-cells. The description is as above. Format: cell-based, human. To be noted: continuous presence 72 and 120 h, 2 mg/ml trypsin-chymotrypsin inhibitor, 1 mg/ml aprotinin, leupeptin or E64. Here is the method:
as §1, §2, §3, §4, §5, §6

With `CCCC[C@@H](C=O)NC(=O)[C@H](CC(C)C)NC(=O)[C@H](CC(C)C)NC(C)=O` [calpain inhibitor I, N-Acetyl-Leu-Leu-Norleucinal] (Ac-Leu-Leu-[Nle]-aldehyde), the tumor regression entry in the data set with Walker rat tumors (5 doses) was “approximately 92%”.
For the molecule `CSCC[C@@H](C=O)NC(=O)[C@H](CC(C)C)NC(=O)[C@H](CC(C)C)NC(C)=O` [calpain inhibitor II, N-Acetyl-Leu-Leu-Methioninal] (Ac-Leu-Leu-Met-aldehyde), the “cytotoxic effect (cell survival, FIG. 1)” value in data set [1] is given as “slightly greater cytotoxicity than aprotinin”. The “anticancer effect (tumor volume, FIG. 3)” value in the data set on Walker rat tumors is “anticancer effect from the fourth dose”.
On to `CC(C)C[C@H](NC(=O)[C@H]1O[C@@H]1C(=O)O)C(=O)NCCCCN=C(N)N` (relative stereo) [E64, L-trans-3-carboxy-oxiran-2-carbonyl-L-leucylagmatine], for which the “effect on growth or cytology compared to control cell cultures” value in the data set with M-cells and in the data set on P-cells was “did not affect the growth or cytology” throughout. Moreover, the “cytotoxic effect (cell survival, FIG. 1)” value in data set [1] is given as “little cytotoxic effect”.
Regarding `CC(=O)N[C@@H](CC(C)C)C(=O)N[C@@H](CC(C)C)C(=O)N[C@H](C=O)CCCNC(=N)N` [leupeptin, N-acetyl-L-leucyl-L-leucyl-L-arginal], the “effect on growth or cytology compared to control cell cultures” value with M-cells and in the data set with P-cells was “did not affect the growth or cytology” throughout. For the same molecule, the “cytotoxic effect (cell survival, FIG. 1)” value in data set [1] is listed as “little cytotoxic effect”.
For the molecule aprotinin, the “effect on growth or cytology compared to control cell cultures” value in the data set with M-cells and in the data set with P-cells was “did not affect the growth or cytology” throughout.
